Results as given in US5116941A, “Peptide substrates for determination of enzyme activity” (Nitto Boseki Co., Ltd., priority 1988, dated 1992).
Where a name gives a salt, the structure may show the parent alone. Where a SMILES comes first, the peptide text is derived from it.

Key:
Trypsin = molecular target: T1, Trypsin (Bos taurus, UniProt P00760); assay: Substrate specificity: enzyme reaction with trypsin, colorimetric; format: biochemical, Bovine; conditions: for absorbance (O.D.) measured, Try: So = 0.4 mmol, 37° C., 5 minutes, pH 8.0
T1 construct: purchased Wersinton (so in the source)
T1 sequence (P00760 24-246): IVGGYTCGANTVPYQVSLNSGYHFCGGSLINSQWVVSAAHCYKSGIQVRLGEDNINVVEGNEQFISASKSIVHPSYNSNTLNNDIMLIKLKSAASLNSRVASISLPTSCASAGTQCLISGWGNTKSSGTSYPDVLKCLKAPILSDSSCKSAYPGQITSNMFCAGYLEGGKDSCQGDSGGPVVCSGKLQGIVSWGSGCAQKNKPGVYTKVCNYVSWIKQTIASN
Description: (§1) Specificity of each of the new substrates synthesized in Examples 1 through 4 was examined by reacting with each enzyme. Details of reagents used are as described below.
(§2) (2) Buffer: concentration of Tris, NaCl and CaCl2 and pH (25° C.) were set as shown below, depending upon enzyme. […]
(§3) Enzyme used and its source, etc. are as follows. […]
Trypsin Bovine Wersinton 31M771 10 μg/ml
(§4) (4) Terminate solution (PNA): 10% acetic acid
(§5) (5) Color forming reagent (CHA): pentacyanoamineferroate
(§6) Buffer, 0.5 ml and 0.1 ml of substrate solution are charged in a silicone-treated hard glass test tube or plastic test tube. The mixture is previously heated for 10 minutes in a thermostat at 37° C. Then, 0.1 ml of enzyme solution is added to the mixture to perform enzyme reaction at 37° C. for 5 minutes. Accurately 5 minutes after, 2.0 ml of the terminate solution is added to stop the enzyme reaction. Then the reaction mixture is allowed to stand at 37° C. for 10 minutes and its absorbance is measured at 405 nm or 700 nm.

Thrombin [1] = molecular target: T2, Thrombin (Bos taurus, UniProt P00735); assay: Substrate specificity: enzyme reaction with thrombin, colorimetric; format: biochemical, Bovine; conditions: for absorbance (O.D.) measured, TH: So = 0.4 mmol, 37° C., 5 minutes, pH 8.5
T2 construct: purchased Mochida Pharmaceutical Company Lot 65146
Description: as §1, §2, §3, §4, §5, §6

Kallikrein = assay: Substrate specificity: enzyme reaction with kallikrein, colorimetric; format: biochemical, Swine; conditions: So = 0.4 mmol, 37° C., 5 minutes, pH 7.8
Description: as §1, §2, §3, §4, §5, §6

Factor Xa [2] = molecular target: T3, Factor Xa (Bos taurus, UniProt P00743); assay: Substrate specificity: enzyme reaction with factor Xa, colorimetric; format: biochemical, Bovine; conditions: for absorbance (O.D.) measured, FXa: So = 0.4 mmol, 37° C., 5 minutes, pH 8.3
T3 construct: purchased Sigma Inc. Lot 73F-9450
T3 sequence (P00743 234-492 limits assumed): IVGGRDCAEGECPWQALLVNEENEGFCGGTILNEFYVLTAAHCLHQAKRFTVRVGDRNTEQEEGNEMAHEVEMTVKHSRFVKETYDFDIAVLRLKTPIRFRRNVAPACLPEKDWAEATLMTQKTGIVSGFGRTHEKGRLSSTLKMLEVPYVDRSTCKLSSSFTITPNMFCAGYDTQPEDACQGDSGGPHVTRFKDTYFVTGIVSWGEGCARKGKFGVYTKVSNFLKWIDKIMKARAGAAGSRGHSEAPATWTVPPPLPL
T3 sequence (P00743 41-180 partner limits assumed): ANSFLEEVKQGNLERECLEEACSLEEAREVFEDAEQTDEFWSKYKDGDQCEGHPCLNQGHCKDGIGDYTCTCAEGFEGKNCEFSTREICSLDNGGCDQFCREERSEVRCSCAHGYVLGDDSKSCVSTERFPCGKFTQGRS
Description: as §1, §2, §3, §4, §5, §6

Plasmin [3] = molecular target: T4, Plasmin (Homo sapiens, UniProt P00747); assay: Substrate specificity: enzyme reaction with plasmin, colorimetric; format: biochemical; set-up: purchased Green Cross Company Lot PL-35; conditions: for absorbance (O.D.) measured, PL: So = 0.4 mmol, 37° C., 5 minutes, pH 7.8
Description: as §1, §2, §3
Target sequence in this assay (P00747 581-810 limits assumed): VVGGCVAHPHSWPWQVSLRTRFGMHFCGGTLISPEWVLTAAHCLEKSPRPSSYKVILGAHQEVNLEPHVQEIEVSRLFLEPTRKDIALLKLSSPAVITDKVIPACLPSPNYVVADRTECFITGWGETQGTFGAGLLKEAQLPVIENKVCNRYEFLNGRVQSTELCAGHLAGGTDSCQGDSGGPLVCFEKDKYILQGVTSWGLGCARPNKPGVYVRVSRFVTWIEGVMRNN
Target sequence in this assay (P00747 97-580 partner limits assumed): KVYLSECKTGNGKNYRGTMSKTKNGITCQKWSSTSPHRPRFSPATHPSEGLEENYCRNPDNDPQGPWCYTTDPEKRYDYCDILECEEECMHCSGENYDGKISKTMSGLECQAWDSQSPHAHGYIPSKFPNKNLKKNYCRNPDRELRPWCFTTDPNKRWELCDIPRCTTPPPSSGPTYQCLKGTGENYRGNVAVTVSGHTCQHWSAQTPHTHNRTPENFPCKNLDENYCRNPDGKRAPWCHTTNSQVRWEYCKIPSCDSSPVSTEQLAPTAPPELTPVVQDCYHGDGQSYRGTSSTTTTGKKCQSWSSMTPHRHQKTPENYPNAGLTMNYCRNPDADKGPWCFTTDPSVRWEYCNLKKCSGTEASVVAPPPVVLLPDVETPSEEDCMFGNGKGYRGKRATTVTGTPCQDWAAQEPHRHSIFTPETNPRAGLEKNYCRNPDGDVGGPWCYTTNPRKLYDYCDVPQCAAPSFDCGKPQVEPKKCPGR
Plasmin Human Green Cross PL-35 0.25 CU/ml
as §4, §5, §6

thrombin [4] = molecular target: thrombin (Homo sapiens, UniProt P00734); conditions: it is known; cited from earlier work
Plasmin [5] = molecular target: T4, Plasmin; conditions: it is known; cited from earlier work
Target sequence in this assay (P00747 581-810 limits assumed, species assumed): as the sequence (P00747 581-810 limits assumed) above
Target sequence in this assay (P00747 97-580 partner limits assumed, species assumed): as the sequence (P00747 97-580 partner limits assumed) above

factor Xa [6] = molecular target: factor Xa (Homo sapiens, UniProt P00742); conditions: it is known; cited from earlier work
Sequence of factor Xa (P00742 235-488 limits assumed): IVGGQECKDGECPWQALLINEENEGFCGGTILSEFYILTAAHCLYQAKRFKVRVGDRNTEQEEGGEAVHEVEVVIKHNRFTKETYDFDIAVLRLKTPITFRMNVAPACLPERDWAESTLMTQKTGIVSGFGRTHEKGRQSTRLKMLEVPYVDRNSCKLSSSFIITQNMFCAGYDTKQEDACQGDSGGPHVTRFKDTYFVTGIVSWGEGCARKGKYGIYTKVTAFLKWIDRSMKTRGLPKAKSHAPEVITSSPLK
Sequence of factor Xa (P00742 41-179 partner limits assumed): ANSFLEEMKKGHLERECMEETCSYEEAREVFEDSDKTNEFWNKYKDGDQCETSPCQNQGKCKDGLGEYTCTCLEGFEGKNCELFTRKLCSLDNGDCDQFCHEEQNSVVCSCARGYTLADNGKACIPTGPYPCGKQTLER

[7] = 700 nm, pentacyanoamineferroate
[8] = CHR-TRY is made 100, So=0.4 mmol

absorbance (O.D.) measured, Try (Trypsin; [7]) [O.D.] | absorbance (O.D.) measured, TH (Thrombin [1]; [7]) [O.D.] | absorbance (O.D.) measured, KL (Kallikrein; [7]) [O.D.] | absorbance (O.D.) measured, FXa (Factor Xa [2]; [7]) [O.D.] | absorbance (O.D.) measured, PL (Plasmin [3]; [7]) [O.D.] | Compound | further results
0.814 | 0.021 | 0.002 | 0.007 | 0.005 | N=C(N)NCCC[C@H](NC(=O)[C@@H]1CCCCN1C(=O)[C@@H]1CCC(=O)N1)C(=O)Nc1ccc(O)c(C(=O)O)c1 [PS-1292] | –
0.588 | 0.003 | 0.003 | 0.010 | 0.008 | CC[C@H](NC(=O)[C@@H]1CCC(=O)N1)C(=O)N[C@@H](CCCNC(=N)N)C(=O)Nc1ccc(O)c(C(=O)O)c1 [PS-1294, H--PyroGlu--But--Arg--CHA.HCl] | –
0.570 | 0.022 | 0.004 | 0.008 | 0.013 | N=C(N)NCCC[C@H](NC(=O)[C@@H]1CCCN1C(=O)[C@@H]1CCC(=O)N1)C(=O)Nc1ccc(O)c(C(=O)O)c1 [PS-1242, H--PyroGlu--Pro--Arg--CHA] | –
0.637 | 0.002 | 0.006 | 0.008 | 0.008 | CCC[C@H](NC(=O)[C@@H]1CCC(=O)N1)C(=O)N[C@@H](CCCNC(=N)N)C(=O)Nc1ccc(O)c(C(=O)O)c1 [PS-1295, H--PyroGlu--NVal--Arg--CHA.HCl] | –
– | – | – | – | – | CC(C)[C@H](NC(=O)OCc1ccccc1)C(=O)NCC(=O)N[C@@H](CCCNC(=N)N)C(=O)Nc1ccc([N+](=O)[O-])cc1 [CHR-TRY, Benzyloxy-carbonyl-Val-Gly-Arg-p-Nitroanilide, reference compound] (HELM PEPTIDE1{[O=C(OCc1ccccc1)[*:2]].V.G.R.[O=[N+]([O-])c1ccc(N[*:1])cc1]}$$$$V2.0) | absorbance (O.D.) measured, Try (Trypsin; 405 nm (PNA substrate)): 0.243 O.D.; absorbance (O.D.) measured, TH (Thrombin [1]; 405 nm (PNA substrate)): 0.050 O.D.; absorbance (O.D.) measured, KL (Kallikrein; 405 nm (PNA substrate)): 0.008 O.D.; absorbance (O.D.) measured, FXa (Factor Xa [2]; 405 nm (PNA substrate)): 0.090 O.D.; reaction with thrombin (thrombin [4]): considerably reacts; reaction with plasmin (Plasmin [5]): considerably reacts; reaction with factor Xa (factor Xa [6]): considerably reacts; absorbance (O.D.) measured, PL (Plasmin [3]; 405 nm (PNA substrate)): 0.014 O.D.
0.403 | 0.005 | 0.002 | 0.007 | 0.000 | H--D--PyroGlu--Ala--Arg--CHA.HCl [PS-1290] | –
0.556 | 0.012 | 0.002 | 0.007 | 0.004 | H--D--PyroGlu--Pro--Arg--CHA.HCl [PS-1291] | –
0.401 | 0.002 | 0.003 | 0.004 | 0.004 | N=C(N)NCCC[C@H](NC(=O)CNC(=O)[C@H](N)CCC(=O)O)C(=O)Nc1ccc(O)c(C(=O)O)c1 [PS-1298, H--D--Glu--Gly--Arg--CHA.2HCl] | –
0.434 | 0.002 | 0.002 | 0.007 | 0.007 | CC(C)[C@H](NC(=O)[C@@H]1CCC(=O)N1)C(=O)N[C@@H](CCCNC(=N)N)C(=O)Nc1ccc(O)c(C(=O)O)c1 [PS-1293, H--PyroGlu--Val--Arg--CHA.HCl] | –
0.676 | 0.006 | 0.005 | 0.008 | 0.005 | C[C@H](NC(=O)[C@@H]1CCC(=O)N1)C(=O)N[C@@H](CCCNC(=N)N)C(=O)Nc1ccc(O)c(C(=O)O)c1 [PS-1245, H-PyroGlu-Ala-Arg-CHA] | reactivity with trypsin relative to CHR-TRY (Trypsin; CHR-TRY is made 100): 278%; Relative Reactivity of Substrate to Each Enzyme, Try (Trypsin; [8]): 278; reactivity with thrombin relative to CHR-TRY (Thrombin [1]; CHR-TRY is made 100): 12%; Relative Reactivity of Substrate to Each Enzyme, TH (Thrombin [1]; [8]): 12; reactivity with factor Xa relative to CHR-TRY (Factor Xa [2]; CHR-TRY is made 100): 19%; Relative Reactivity of Substrate to Each Enzyme, FXa (Factor Xa [2]; [8]): 9; reactivity with plasmin relative to CHR-TRY (Plasmin [3]; CHR-TRY is made 100): 36%; Relative Reactivity of Substrate to Each Enzyme, PL (Plasmin [3]; [8]): 36
0.656 | 0.002 | 0.006 | 0.008 | 0.010 | CCCC[C@H](NC(=O)[C@@H]1CCC(=O)N1)C(=O)N[C@@H](CCCNC(=N)N)C(=O)Nc1ccc(O)c(C(=O)O)c1 [PS-1296, H--PyroGlu--NLeu--Arg--CHA.HCl] | –
